According to ChEMBL document CHEMBL3885861, “Open TG-GATES”:

Species on record: Rattus norvegicus
Test: Open TG-GATES - Regimen: Single
Format: toxicity, organism-based, Sprague-Dawley
Set-up: regimen Single, gender Male, age 6 weeks
Details: in vivo, po, 30 mg/kg, route gavage, dose level High; for APTT / Bas / Eos / Fbg / Hb / Ht / Lym / MCH / MCHC / Mono / Neu / Plat / RBC / Ret / WBC: tissue Blood; for KIDNEY_L / KIDNEY_R / KIDNEY_TOTAL: tissue Kidney; for LIVER: tissue Liver; for ALP / ALT / AST / BUN / CRE / Ca / Cl / DBIL / GLC / IP / K / LDH / Na / PL / RALB / TBIL / TC / TG / TP / gamma-GTP: tissue Plasma

SMILES: O=C(CCCN1CCC(O)(c2ccc(Cl)cc2)CC1)c1ccc(F)cc1 [HALOPERIDOL]
- TERMINAL_BW (3 h): 205 g
- APTT (3 h): 17.2 s
- Bas (3 h): 0%
- Eos (3 h): 0.2%
- Fbg (3 h): 207.6 mg/dL
- Hb (3 h): 12.8 g/dL
- Ht (3 h): 38.4%
- Lym (3 h): 70.4%
- MCH (3 h): 21.5 pg
- MCHC (3 h): 33.3%
- Mono (3 h): 6%
- Neu (3 h): 23.4%
- Plat (3 h): 97 x10_4/uL
- RBC (3 h): 593.6 x10_4/ul
- Ret (3 h): 8.9%
- WBC (3 h): 57.7 x10_2/uL
- KIDNEY_L (3 h): 0.9 g
- KIDNEY_R (3 h): 0.9 g
- KIDNEY_TOTAL (3 h): 1.9 g
- LIVER (3 h): 9.5 g
- ALP (3 h): 676.8 IU/L
- ALT (3 h): 31.4 IU/L
- AST (3 h): 52 IU/L
- BUN (3 h): 12.2 mg/dL
- CRE (3 h): 0.5 mg/dL
- Ca (3 h): 10.7 mg/dL
- Cl (3 h): 108.8 meq/L
- DBIL (3 h): 0.018 mg/dL
- GLC (3 h): 222.8 mg/dL
- IP (3 h): 10.5 mg/dL
- K (3 h): 4.4 meq/L
- LDH (3 h): 166.8 IU/L
- Na (3 h): 140.8 meq/L
- PL (3 h): 157.6 mg/dL
- RALB (3 h): 3.7 g/dL
- TBIL (3 h): 0.3 mg/dL
- TC (3 h): 92.2 mg/dL
- TG (3 h): 34.6 mg/dL
- TP (3 h): 5.6 g/dL
- gamma-GTP (3 h): 1.4 IU/L
- TERMINAL_BW (6 h): 194.4 g
- APTT (6 h): 17.2 s
- Bas (6 h): 0%
- Eos (6 h): 0.4%
- Fbg (6 h): 198.5 mg/dL
- Hb (6 h): 13.9 g/dL
- Ht (6 h): 41.3%
- Lym (6 h): 72.6%
- MCH (6 h): 21.4 pg
- MCHC (6 h): 33.7%
- Mono (6 h): 4.4%
- Neu (6 h): 22.6%
- Plat (6 h): 110.6 x10_4/uL
- RBC (6 h): 647.2 x10_4/ul
- Ret (6 h): 9.3%
- WBC (6 h): 75.5 x10_2/uL
- KIDNEY_L (6 h): 0.9 g
- KIDNEY_R (6 h): 0.9 g
- KIDNEY_TOTAL (6 h): 1.8 g
- LIVER (6 h): 8.9 g
- ALP (6 h): 742.6 IU/L
- ALT (6 h): 30.6 IU/L
- AST (6 h): 59.8 IU/L
- BUN (6 h): 9.2 mg/dL
- CRE (6 h): 0.5 mg/dL
- Ca (6 h): 10.1 mg/dL
- Cl (6 h): 108.2 meq/L
- DBIL (6 h): 0.036 mg/dL
- GLC (6 h): 215.6 mg/dL
- IP (6 h): 10.1 mg/dL
- K (6 h): 4.6 meq/L
- LDH (6 h): 179.8 IU/L
- Na (6 h): 140 meq/L
- PL (6 h): 133.6 mg/dL
- RALB (6 h): 3.6 g/dL
- TBIL (6 h): 0.3 mg/dL
- TC (6 h): 77.8 mg/dL
- TG (6 h): 20 mg/dL
- TP (6 h): 5.5 g/dL
- gamma-GTP (6 h): 1.2 IU/L
- TERMINAL_BW (9 h): 194.2 g
- APTT (9 h): 16.9 s
- Bas (9 h): 0%
- Eos (9 h): 1.4%
- Fbg (9 h): 216 mg/dL
- Hb (9 h): 13.6 g/dL
- Ht (9 h): 40.7%
- Lym (9 h): 69%
- MCH (9 h): 21.9 pg
- MCHC (9 h): 33.4%
- Mono (9 h): 5.6%
- Neu (9 h): 24%
- Plat (9 h): 104 x10_4/uL
- RBC (9 h): 623 x10_4/ul
- Ret (9 h): 8.6%
- WBC (9 h): 59.3 x10_2/uL
- KIDNEY_L (9 h): 0.9 g
- KIDNEY_R (9 h): 0.9 g
- KIDNEY_TOTAL (9 h): 1.8 g
- LIVER (9 h): 8.3 g
- ALP (9 h): 898.8 IU/L
- ALT (9 h): 26.8 IU/L
- AST (9 h): 53.2 IU/L
- BUN (9 h): 10.8 mg/dL
- CRE (9 h): 0.5 mg/dL
- Ca (9 h): 9.9 mg/dL
- Cl (9 h): 108.8 meq/L
- DBIL (9 h): 0.012 mg/dL
- GLC (9 h): 201.2 mg/dL
- IP (9 h): 10.8 mg/dL
- K (9 h): 4.8 meq/L
- LDH (9 h): 180.8 IU/L
- Na (9 h): 140.6 meq/L
- PL (9 h): 137.2 mg/dL
- RALB (9 h): 3.9 g/dL
- TBIL (9 h): 0.3 mg/dL
- TC (9 h): 75.8 mg/dL
- TG (9 h): 21.4 mg/dL
- TP (9 h): 5.6 g/dL
- gamma-GTP (9 h): 1.2 IU/L
- TERMINAL_BW (24 h): 194.5 g
- APTT (24 h): 15.2 s
- Bas (24 h): 0%
- Eos (24 h): 0.6%
- Fbg (24 h): 200.2 mg/dL
- Hb (24 h): 14.5 g/dL
- Ht (24 h): 43.1%
- Lym (24 h): 80.8%
- MCH (24 h): 21.4 pg
- MCHC (24 h): 33.7%
- Mono (24 h): 5.8%
- Neu (24 h): 12.8%
- Plat (24 h): 118.2 x10_4/uL
- RBC (24 h): 680 x10_4/ul
- Ret (24 h): 7.7%
- WBC (24 h): 59.7 x10_2/uL
- KIDNEY_L (24 h): 0.9 g
- KIDNEY_R (24 h): 0.9 g
- KIDNEY_TOTAL (24 h): 1.8 g
- LIVER (24 h): 8.9 g
- ALP (24 h): 744.8 IU/L
- ALT (24 h): 30.2 IU/L
- AST (24 h): 67.8 IU/L
- BUN (24 h): 28.6 mg/dL
- CRE (24 h): 0.5 mg/dL
- Ca (24 h): 11 mg/dL
- Cl (24 h): 105 meq/L
- DBIL (24 h): 0.044 mg/dL
- GLC (24 h): 181 mg/dL
- IP (24 h): 9.7 mg/dL
- K (24 h): 5.3 meq/L
- LDH (24 h): 216.4 IU/L
- Na (24 h): 140 meq/L
- PL (24 h): 142.8 mg/dL
- RALB (24 h): 4.1 g/dL
- TBIL (24 h): 0.4 mg/dL
- TC (24 h): 77 mg/dL
- TG (24 h): 95 mg/dL
- TP (24 h): 6.1 g/dL
- gamma-GTP (24 h): 1 IU/L
